The record followed here is PubChem BioAssay (NCI).

Several values for one entry are separate records, joined by “and”; a condition that tells them apart may be missing. Identical values can stand only once.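 Protocol summary: plate cells (96-well), add compound at 5 concentrations, incubate 48 h, interpolate endpoints linearly. At the TGI there is no net growth.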 Bounds are passed on as bounds.

Test systems include MALME-3M melanoma; SN12C renal; HCT-116 colon; CAKI-1 renal; HOP-62 NSCLC; SK-OV-3 ovarian; MDA-MB-231 breast; SW-620 colon; OVCAR-8 ovarian; DU-145 prostate; RPMI-8226 leukemia.
Test in all cases: NCI-60 cell line screen, 48 h

As to `CCN1CCC(O)(/C=C/c2ccc(C(C)C)cc2)C(C(=O)/C=C/c2ccc(C(C)C)cc2)C1` (stereo not drawn), the TGI is 10.5 µM in the test with MALME-3M melanoma; 6.06 µM in the test with SN12C renal; 3.53 µM in the test on HCT-116 colon; 8.86 µM in the test with CAKI-1 renal; 13.3 µM in the test with HOP-62 NSCLC; 31.8 µM in the test on SK-OV-3 ovarian. In addition, the TGI was found to be 3.82 µM in the test on MDA-MB-231 breast, 7.25 µM in the test on SW-620 colon, 4.31 µM in the test with OVCAR-8 ovarian and 9.76 µM in the test on DU-145 prostate.
As to `C=CCn1c(-c2ccc([N+](=O)[O-])cc2)csc1=N`, the TGI in the test with MALME-3M melanoma, in the test on SN12C renal, in the test on HCT-116 colon, with CAKI-1 renal, in the test on HOP-62 NSCLC and in the test with SK-OV-3 ovarian was more than 100 µM in each case. For the same molecule, the TGI in the test with MDA-MB-231 breast, in the test with SW-620 colon, in the test with OVCAR-8 ovarian and with DU-145 prostate was more than 100 µM in each case.
For the molecule `O=C(O)CCC(NC(=O)c1ccc(Nc2nc3cc(C(F)(F)F)ccc3nc2C(=O)O)cc1)C(=O)O` (stereo not drawn), the TGI with MALME-3M melanoma, in the test on HCT-116 colon, in the test on HOP-62 NSCLC, in the test with MDA-MB-231 breast, in the test with SW-620 colon and in the test on RPMI-8226 leukemia was more than 100 µM in each case. Further, the TGI with OVCAR-8 ovarian and in the test on DU-145 prostate was more than 100 µM in each case.
As for `O=c1[nH]c(=S)c2cc3c(=S)[nH]c(=O)n(CCO)c3nc2n1CCO`, the TGI in the test with MALME-3M melanoma, in the test on SN12C renal, with HCT-116 colon, in the test on CAKI-1 renal, in the test with HOP-62 NSCLC and in the test on SK-OV-3 ovarian was more than 100 µM each time. For the same molecule, the TGI with MDA-MB-231 breast, in the test on SW-620 colon, with RPMI-8226 leukemia and in the test with OVCAR-8 ovarian was more than 100 µM in each case.
`CCOC(=O)c1c(-c2cccc3ccccc23)c(C#N)c(=S)n(C2OC(COC(C)=O)C(OC(C)=O)C(OC(C)=O)C2OC(C)=O)c1C` (stereo not drawn): the TGI in the test with MALME-3M melanoma, with SN12C renal, in the test with HCT-116 colon, with HOP-62 NSCLC, in the test with SK-OV-3 ovarian and with MDA-MB-231 breast was more than 100 µM throughout. Also, the TGI in the test with OVCAR-8 ovarian and in the test on DU-145 prostate was more than 100 µM in each case.
As to `COc1ccc(C2=NN=C3C(c4ccccc4)=Nc4ccccc4N3C2)cc1`, the TGI with MALME-3M melanoma is 66.3 µM; in the test with SN12C renal it was more than 100 µM; in the test with HCT-116 colon, 71.2 µM; in the test with HOP-62 NSCLC, more than 100 µM; with SK-OV-3 ovarian, more than 100 µM; in the test on MDA-MB-231 breast it was more than 100 µM. Besides, the TGI in the test with SW-620 colon is more than 100 µM; with RPMI-8226 leukemia, more than 100 µM; in the test on DU-145 prostate, 70.7 µM.
As for `CN(C)CCCNCc1cccc2ccccc12`, the TGI in the test with MALME-3M melanoma, with SN12C renal, in the test on HCT-116 colon, in the test on HOP-62 NSCLC, with SK-OV-3 ovarian and with MDA-MB-231 breast was more than 100 µM in each case. In addition, the TGI in the test with SW-620 colon, in the test with RPMI-8226 leukemia, with OVCAR-8 ovarian and with DU-145 prostate was more than 100 µM each time.
In the case of `O=C(O)Cn1cc([N+](=O)[O-])c(=O)c2ccccc21`, the TGI with MALME-3M melanoma, in the test with SN12C renal, in the test with HCT-116 colon, with CAKI-1 renal, in the test with HOP-62 NSCLC and in the test on SK-OV-3 ovarian was more than 100 µM each time. For the same molecule, the TGI with MDA-MB-231 breast is 32.9 µM; with SW-620 colon, more than 100 µM; in the test with OVCAR-8 ovarian, more than 100 µM; in the test on DU-145 prostate, more than 100 µM.
Turning to `CC1=NN(c2nc(N)nc(CF)n2)C(C)(C)C1`, the TGI in the test on HCT-116 colon, in the test with CAKI-1 renal, with HOP-62 NSCLC, in the test on SK-OV-3 ovarian, in the test on MDA-MB-231 breast and in the test with SW-620 colon was more than 100 µM throughout. Besides, the TGI with RPMI-8226 leukemia, in the test with OVCAR-8 ovarian and in the test on DU-145 prostate was more than 100 µM in each case.
As for `Oc1ccc(Cl)cc1C1=NC(/N=C\c2ccccc2)=NC(c2ccccc2)C1` (stereo not drawn), the TGI is more than 100 µM in the test with SN12C renal; more than 100 µM in the test on HCT-116 colon; 28.1 µM in the test with CAKI-1 renal; more than 100 µM in the test with HOP-62 NSCLC; 74.7 µM in the test on SK-OV-3 ovarian; more than 100 µM with MDA-MB-231 breast. The TGI in the test with SW-620 colon, in the test on OVCAR-8 ovarian and with DU-145 prostate was more than 100 µM in each case.
Take `CCN1CCC(O)(/C=C/c2ccc(OC)cc2)C(C(=O)/C=C/c2ccc(OC)cc2)C1` (stereo not drawn): the TGI stood at 32.8 µM in the test on MALME-3M melanoma; 28 µM in the test with SN12C renal; 14.7 µM in the test with HCT-116 colon; 33.4 µM in the test on HOP-62 NSCLC; 22.5 µM with SK-OV-3 ovarian; 17.5 µM in the test on MDA-MB-231 breast. Moreover, the TGI in the test with SW-620 colon was determined as 17.9 µM; with RPMI-8226 leukemia, 44.8 µM; in the test on DU-145 prostate, 22.8 µM.
Consider `[N-]=[N+]=C(C(=O)N1CCCC1=O)S(=O)(=O)c1ccccc1`, for which the TGI with MALME-3M melanoma, with SN12C renal, in the test on HCT-116 colon, in the test on HOP-62 NSCLC, in the test on MDA-MB-231 breast and in the test on SW-620 colon was more than 100 µM each time. The TGI in the test with RPMI-8226 leukemia, with OVCAR-8 ovarian and in the test with DU-145 prostate was more than 100 µM throughout.
Consider `COC(=O)C1=C(C(=O)OC)SC2(S1)C(C(=O)OC)=C(C(=O)OC)Sc1c2ssc1=NC(C)(C)C`, for which the TGI turned out to be 5.09 µM in the test on MALME-3M melanoma; 2.52 µM with SN12C renal; 2.03 µM in the test with HCT-116 colon; 4.01 µM in the test on CAKI-1 renal; 15.5 µM in the test on HOP-62 NSCLC; 18.1 µM in the test on SK-OV-3 ovarian. For the same molecule, the values for the TGI in the test with MDA-MB-231 breast, in the test with OVCAR-8 ovarian and in the test with DU-145 prostate were 3.44 µM, 3.77 µM and 2.17 µM, respectively.
In the case of `C/C=C(/C)C(=O)O[C@H]1[C@H](O)CC(c2ccc3c(c2O)C(O)=C2C(=O)C4(OC)C(O)=C(C(N)=O)C(=O)[C@H](CC(=O)c5ccccc5O)C4CC2[C@@]3(C)OC)O[C@@H]1C` (stereo partly drawn), the TGI was 2.87 µM with MALME-3M melanoma; 1.39 µM and 0.198 µM in the test with SN12C renal; 0.0262 µM and 0.0189 µM with HCT-116 colon; 5.72 µM and 2.05 µM with SK-OV-3 ovarian; 1.35 µM in the test with MDA-MB-231 breast; 1.13 µM in the test on SW-620 colon. The TGI with RPMI-8226 leukemia was 0.557 µM and 1.76 µM; in the test with OVCAR-8 ovarian it was 1.67 µM and 0.713 µM.
